Source: the supplement of paper PMC11208160

Assay: recombinant barcode read abundance after kanamycin selection (control-corrected) (log10(CPM+1)); higher = more efficient recombination; sequences stand for … in AGTGCAGAGAAAATCGGCCAGTTTTCTCTGCCTGCAGTCCGCATGCCGT…AGATTTATGCAGCGGACTGCCTTTCTCCCAAAGTGATAAACCGGACAGTATCATGGACCGGTTTTCCCGGTAATCCGTATTTGCAAGGTTGGTTTCACT; site = the 11-nt target
How it was run: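 Each value is log10(CPM+1). It describes recombination efficiency, taken as averaged, control-corrected counts per million of barcodes at recombinant junctions. The pooled E. coli library paired targets with IS621 bridge RNA target-binding loops, was co-electroporated with a donor plasmid, and was plated twice on chloramphenicol/ampicillin LB agar (control) and twice on chloramphenicol/ampicillin/kanamycin containing 0.1 mM IPTG.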
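Further: IS621 recombinase and bridge RNA in Escherichia coli cells.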

Sequence	recombinant barcode read abundance (log10)
CTTCGACCTTGGGTTCTAACCTGTTGCAT (site CTTGGACCTCT)	0.0729
CTTCGAGCTTGGGTTCTAACCTGTTGCAG (site CTTCGAGCTCA)	0.172
CTTCGAGCTTGGGTTCTAACCTGTTGCAG (site CTTCGAGCTCC)	0.288
CTTCGAGCTTGGGTTCTAACCTGTTGCAG (site CTTCGAGCTCG)	0.168
CTTCGAGCTTGGGTTCTAACCTGTTGCAG (site CTTCGAGCTCT)	1.35
CTTCGCCCTTGGGTTCTAACCTGTTGCTT (site ACAGTGGCTCC)	0.0481
CTTCGCCCTTGGGTTCTAACCTGTTGCTT (site CTTCGCCCTAA)	0.109
CTTCGGACTTGGGTTCTAACCTGTTGCAA (site CTTCGGACTTT)	1.62
CTTCGGACTTGGGTTCTAACCTGTTGCAA (site CTTCGGGCTTT)	0.223
CTTCGGGCTTGGGTTCTAACCTGTTGCAG (site CATCGGGCTCT)	1.25
CTTCGGGCTTGGGTTCTAACCTGTTGCAG (site CCTCGGGCTCT)	1.3
CTTCGGGCTTGGGTTCTAACCTGTTGCAG (site CGTCGGGCTCT)	0.0132
CTTCGGGCTTGGGTTCTAACCTGTTGCAG (site CTTCGGGCTCT)	1.96
CTTCGTCCTTGGGTTCTAACCTGTTGCAT (site CTTCGTCCTAA)	0.0066
CTTCGTCCTTGGGTTCTAACCTGTTGCAT (site CTTCGTCCTAC)	0.133
CTTCGTCCTTGGGTTCTAACCTGTTGCAT (site CTTCGTCCTAG)	0.139
CTTCGTCCTTGGGTTCTAACCTGTTGCAT (site CTTCGTCCTAT)	0.658
CTTGAATCTTGGGTTCTAACCTGTTGCCT (site CTTAAATCTAG)	0.117
CTTGAATCTTGGGTTCTAACCTGTTGCCT (site CTTCAATCTAG)	0.0867
CTTGAATCTTGGGTTCTAACCTGTTGCCT (site CTTGAATCTAG)	0.379
CTTGAATCTTGGGTTCTAACCTGTTGCCT (site CTTTAATCTAG)	0.337
CTTGAGACTTGGGTTCTAACCTGTTGCCT (site CTTCAGGCTAG)	0.256

Sequence	recombinant barcode read abundance (log10)
CTTGAGACTTGGGTTCTAACCTGTTGCCT (site CTTGAGACTAG)	2.02
CTTGGACCTTGGGTTCTAACCTGTTGCAG (site CTTCGACCTAT)	0.00985
CTTGGACCTTGGGTTCTAACCTGTTGCAG (site CTTGGACCTCT)	2.55
CTTGGACCTTGGGTTCTAACCTGTTGCCT (site CTTGGAACTAG)	0.222
CTTGGACCTTGGGTTCTAACCTGTTGCCT (site CTTGGACCTAG)	1.74
CTTGGACCTTGGGTTCTAACCTGTTGCCT (site CTTGGAGCTAG)	0.0408
CTTGGACCTTGGGTTCTAACCTGTTGCCT (site CTTGGATCTAG)	0.113
CTTGGTTCTTGGGTTCTAACCTGTTGCCT (site CTTGGGTCTAG)	0.108
CTTGGTTCTTGGGTTCTAACCTGTTGCCT (site CTTGGTTCTAG)	0.33
CTTTAAGCTTGGGTTCTAACCTGTTGCTA (site ACCGTTCCTAG)	0.0964
CTTTAAGCTTGGGTTCTAACCTGTTGCTA (site CTTTAAGCTTA)	0.195
CTTTAATCTTGGGTTCTAACCTGTTGCCT (site CTTAAATCTAG)	0.349
CTTTAATCTTGGGTTCTAACCTGTTGCCT (site CTTCAATCTAG)	0.158
CTTTAATCTTGGGTTCTAACCTGTTGCCT (site CTTGAATCTAG)	0.0679
CTTTAATCTTGGGTTCTAACCTGTTGCCT (site CTTTAATCTAG)	0.165
CTTTAGACTTGGGTTCTAACCTGTTGCAT (site CTCTAGACTAC)	0.0162
CTTTAGACTTGGGTTCTAACCTGTTGCAT (site CTTTAGACTAT)	0.926
CTTTCCTCTTGGGTTCTAACCTGTTGCCT (site CATTCCTCTAG)	0.153
CTTTCCTCTTGGGTTCTAACCTGTTGCCT (site CCTTCCTCTAG)	0.0332
CTTTCCTCTTGGGTTCTAACCTGTTGCCT (site CGTTCCTCTAG)	0.0618
CTTTCCTCTTGGGTTCTAACCTGTTGCCT (site CTTTCCTCTAG)	0.831
CTTTCCTCTTGGGTTCTAACCTGTTGCTT (site CATTACTCTAA)	0.2

Sequence	recombinant barcode read abundance (log10)
CTTTCCTCTTGGGTTCTAACCTGTTGCTT (site CTTTCCTCTAA)	0.92
CTTTCGTCTTGGGTTCTAACCTGTTGCCT (site CTTTCACCTAG)	0.0235
CTTTCGTCTTGGGTTCTAACCTGTTGCCT (site CTTTCGTCTAG)	0.0335
CTTTGAGCTTGGGTTCTAACCTGTTGCAT (site CTTCGGGCTAT)	0.0604
CTTTGAGCTTGGGTTCTAACCTGTTGCAT (site CTTTGAGCTAT)	0.632
CTTTGATCTTGGGTTCTAACCTGTTGCGT (site CATCGATCTAC)	0.0142
CTTTGATCTTGGGTTCTAACCTGTTGCGT (site CTTTGATCTAC)	1.29
GAAACAGCTTGGGTTCTAACCTGTTGCCT (site GAAACAGCTAG)	0.725
GAAACAGCTTGGGTTCTAACCTGTTGCCT (site GACACAGCTAG)	0.0141
GAAACAGCTTGGGTTCTAACCTGTTGCCT (site GAGACAGCTAG)	0.281
GAAACAGCTTGGGTTCTAACCTGTTGCCT (site GATACAGCTAG)	0.158
GAAAGTCCTTGGGTTCTAACCTGTTGCCT (site GAAAATCCTAG)	0.0602
GAAAGTCCTTGGGTTCTAACCTGTTGCCT (site GAAACTCCTAG)	0.0877
GAAAGTCCTTGGGTTCTAACCTGTTGCCT (site GAAAGTCCTAG)	0.917
GAAAGTCCTTGGGTTCTAACCTGTTGCCT (site GAAATTCCTAG)	0.0822
GAAATACCTTGGGTTCTAACCTGTTGCGG (site AGCTATGCTAG)	0.131
GAAATACCTTGGGTTCTAACCTGTTGCGG (site GAAATACCTCC)	1.41
GAACAGCCTTGGGTTCTAACCTGTTGCGT (site ATTGCTACTTG)	0.278
GAACAGCCTTGGGTTCTAACCTGTTGCGT (site GAACAGCCTAC)	0.943
GAACCACCTTGGGTTCTAACCTGTTGCCT (site GAACCACCTAG)	1.75
GAACCACCTTGGGTTCTAACCTGTTGCCT (site TCACCACCTAG)	0.133
GAACCTACTTGGGTTCTAACCTGTTGCCG (site GAACCTACTCG)	0.583

Sequence	recombinant barcode read abundance (log10)
GAACCTACTTGGGTTCTAACCTGTTGCCG (site GAGCCTACTAG)	0.172
GAACCTACTTGGGTTCTAACCTGTTGCGA (site GAACCTACTCC)	0.0825
GAACCTACTTGGGTTCTAACCTGTTGCGA (site GAACCTACTTC)	1.87
GAACCTCCTTGGGTTCTAACCTGTTGCAT (site GAACCTCCTAT)	1.94
GAACCTCCTTGGGTTCTAACCTGTTGCAT (site TGCGTAACTTG)	0.0548
GAACGACCTTGGGTTCTAACCTGTTGCTG (site GAACGACCTAA)	0.0602
GAACGACCTTGGGTTCTAACCTGTTGCTG (site GAACGACCTCA)	1.16
GAACGATCTTGGGTTCTAACCTGTTGCCT (site GAACCTTCTAG)	0.148
GAACGATCTTGGGTTCTAACCTGTTGCCT (site GAACGATCTAG)	0.397
GAACGCTCTTGGGTTCTAACCTGTTGCCA (site AGGTCTACTAA)	0.0972
GAACGCTCTTGGGTTCTAACCTGTTGCCA (site GAACGCTCTTG)	0.265
GAACTTGCTTGGGTTCTAACCTGTTGCCT (site GAACTTGCTAG)	1.24
GAACTTGCTTGGGTTCTAACCTGTTGCCT (site GCCCTTGCTAG)	0.176
GAAGAGACTTGGGTTCTAACCTGTTGCCT (site GAAAACACTAG)	0.0941
GAAGAGACTTGGGTTCTAACCTGTTGCCT (site GAAGAGACTAG)	1.57
GAAGCATCTTGGGTTCTAACCTGTTGCCT (site GAAGCATCTAG)	1.54
GAAGCATCTTGGGTTCTAACCTGTTGCCT (site GATGCCTCTAG)	0.123
GAAGGGCCTTGGGTTCTAACCTGTTGCCT (site GAAGAGCCTAG)	0.202
GAAGGGCCTTGGGTTCTAACCTGTTGCCT (site GAAGCGCCTAG)	0.225
GAAGGGCCTTGGGTTCTAACCTGTTGCCT (site GAAGGGCCTAG)	0.723
